Test results reported in paper PMC4506051, “Pharmacokinetic Profiles of Active Ingredients and Its Metabolites Derived from Rikkunshito, a Ghrelin Enhancer, in Healthy Japanese Volunteers: A Cross-Over, Randomized Study” (PLoS ONE, 2015).
Read-outs that look alike come from different tables or passages of the source.

Columns and labels:
[1] = clinical; details: for AUC(0-t): AUC0-last; for Cmax: C max
Summary of the method: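 Healthy Japanese adults (20–45 y, BMI 18–25), fasted 12 h before and 4 h after dosing, received single oral rikkunshito 2.5, 5.0 or 7.5 g in a randomized open-label three-period crossover. Plasma sampled 0–48 h; ingredients quantified by LC–MS/MS or GC–MS.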

[2] = Stability of ingredients in gastric pH solution (pH 1.2, 37°C); type: physicochemical
Protocol: Rikkunshito gradually dissolved in acidic solution (pH 1.2) at 37°C, and the concentration of atractylodin after adding 0.25, 0.5, 1, and 2 h was measured by gas chromatography–mass spectrometry.

[3] = cited from earlier work
[4] = Method validation: stability in blood
[5] = Method validation: long-term stability in plasma
[6] = Method validation: short-term stability in plasma
[7] = Method validation: freeze-thaw stability in plasma
[8] = Method validation: post-preparative stability (autosampler)
[9] = Method validation: stability in standard, stock and working solution
[10] = Dose proportionality (linearity) test by power model for C max and AUC0-last; details: for Dose proportionality test using power model, Inference: linear when 90% CI of β included 1, CIlower ≥0.8, and CIupper ≤1.25; for Dose proportionality test using power model, β: rikkunshito 2.5, 5.0 or 7.5 g
Protocol: The dose proportionality was analyzed via a power model [21, 22]. […] Evaluation of linearity of the dosage-exposure relationship was conducted with Phoenix WinNonlin and SAS 9.2 (SAS Institute, Inc., Cary, NC).

[11] = human, in vivo, po, rikkunshito 2.5 g single oral, n = 21, geometric mean (95% CI)
[12] = human, in vivo, po, rikkunshito 5.0 g single oral, n = 19, geometric mean (95% CI)
[13] = human, in vivo, po, rikkunshito 7.5 g single oral, n = 19, geometric mean (95% CI)

SMILES: COc1ccc(-c2cc(=O)c3c(OC)c(OC)c(OC)c(OC)c3o2)cc1OC [Nobiletin]
- t max values ([1]; human, in vivo): 15 min-1 h
- Stability in gastric pH solution, Quantitative value ([2]; 0.5 h, pH 1.2): 18.1 ng/mL
- Stability in gastric pH solution, Quantitative value ([2]; 1 h, pH 1.2): 21.5 ng/mL
- Stability in gastric pH solution, Quantitative value ([2]; 2 h, pH 1.2): 19.6 ng/mL
- Maximum plasma concentration in the preliminary pharmacokinetics study ([3]; in vivo): 0.0626 ± 0.0436 ng/mL
- Stability in blood, RR ([4]; 8 pg/mL, at room temperature for 2 h): 86.3%
- Stability in blood, RR ([4]; 8 pg/mL, on ice for 2 h): 91.7%
- Stability in blood, RR ([4]; 320 pg/mL, at room temperature for 2 h): 99.2%
- Stability in blood, RR ([4]; 320 pg/mL, on ice for 2 h): 91.3%
- Long-term stability, RR ([5]; 8 pg/mL, freezer (−30°C to −10°C) for 13 days): 91.2%
- Long-term stability, RR ([5]; 8 pg/mL, freezer (−30°C to −10°C) for 39 days): 88.0%
- Long-term stability, RR ([5]; 8 pg/mL, freezer (−30°C to −10°C) for 228 days): 89.9%
- Long-term stability, RR ([5]; 320 pg/mL, freezer (−30°C to −10°C) for 13 days): 114.0%
- Long-term stability, RR ([5]; 320 pg/mL, freezer (−30°C to −10°C) for 39 days): 114.3%
- Long-term stability, RR ([5]; 320 pg/mL, freezer (−30°C to −10°C) for 228 days): 103.2%
- Short-term stability, RR ([6]; 8 pg/mL, at room temperature for 4 h): 106.5%
- Short-term stability, RR ([6]; 8 pg/mL, at room temperature for 25 h): 114.3%
- Short-term stability, RR ([6]; 320 pg/mL, at room temperature for 4 h): 109.7%
- Short-term stability, RR ([6]; 320 pg/mL, at room temperature for 25 h): 92.5%
- Freeze-thaw stability, RR ([7]; 8 pg/mL, deep freezer (−30°C to −10°C), after 3 cycles of freeze-thaw): 86.0%
- Freeze-thaw stability, RR ([7]; 320 pg/mL, deep freezer (−30°C to −10°C), after 3 cycles of freeze-thaw): 107.9%
- Post-preparative stability, RR ([8]; 8 pg/mL, autosampler set at 4°C for 24 h): 89.5%
- Post-preparative stability, RR ([8]; 8 pg/mL, autosampler set at 4°C for 48 h): 87.7%
- Post-preparative stability, RR ([8]; 320 pg/mL, autosampler set at 4°C for 24 h): 88.0%
- Post-preparative stability, RR ([8]; 320 pg/mL, autosampler set at 4°C for 48 h): 89.7%
- Working solution stability, RR ([9]; 0.04 ng/mL, refrigerator (1°C to 8°C) for 53 days): 95.0%
- Working solution stability, RR ([9]; 0.04 ng/mL, refrigerator (1°C to 8°C) for 128 days): 89.0%
- Working solution stability, RR ([9]; 4 ng/mL, refrigerator (1°C to 8°C) for 53 days): 102.6%
- Working solution stability, RR ([9]; 4 ng/mL, refrigerator (1°C to 8°C) for 128 days): 109.6%
- Stock solution stability, RR ([9]; 0.1 mg/mL, refrigerator (1°C to 8°C) for 54 days): 54 days: 99.8%
- Stock solution stability, RR ([9]; 0.1 mg/mL, refrigerator (1°C to 8°C) for 129 days): 129 days: 89.1%
- Dose proportionality test using power model, Inference ([10]; AUC0-last): Nonlinear
- Dose proportionality test using power model, β ([10]; AUC0-last): 0.604
- Dose proportionality test using power model, Inference ([10]; Cmax): Nonlinear
- Dose proportionality test using power model, β ([10]; Cmax): 0.701

SMILES: C=C(CC[C@@H](C(=O)O)[C@H]1[C@H](O)C[C@@]2(C)C3=C(CC[C@]12C)[C@@]1(C)CC[C@H](OC(C)=O)C(C)(C)[C@@H]1CC3)C(C)C [Pachymic acid]
- Plasma concentration just before the administration ([1]; all subjects, quantitative trial): BQL
- AUC(0-t) [1, 11]: 0.277 ng·h/mL
- AUC(0-t) [1, 12]: 0.716 ng·h/mL
- AUC(0-t) [1, 13]: 1.21 ng·h/mL
- Cmax [1, 11]: 0.0363 ng/mL
- Cmax [1, 12]: 0.0612 ng/mL
- Cmax [1, 13]: 0.091 ng/mL
- Tmax ([1]; human, in vivo, po, Median t max (range), rikkunshito 2.5 g single oral, n = 21, median (minimum–maximum)): 6 h
- Tmax ([1]; human, in vivo, po, Median t max (range), rikkunshito 5.0 g single oral, n = 19, median (minimum–maximum)): 6 h
- Tmax ([1]; human, in vivo, po, Median t max (range), rikkunshito 7.5 g single oral, n = 19, median (minimum–maximum)): > 3 h
- half-life ([1]; human, in vivo, po, t 1/2, rikkunshito 5.0 g single oral, n = 19, geometric mean (95% CI)): 16.2 h
- Tmax ([1]; human, in vivo, t max, after rikkunshito administration, dose not given): 6 h
- t 1/2 ([1]; rikkunshito 7.5 g single oral, n = 19, geometric mean (95% CI)): 20.5 (14.4–29.2) h
- t 1/2 ([1]; rikkunshito 7.5 g single oral, n = 19, geometric mean (95% CI), listed as pachymic acid): exceeding 10 h
- Median t max (range) ([1]; rikkunshito 7.5 g single oral, n = 19, median (minimum–maximum)): 6.00 (2.00–11.5) h
- Stability in gastric pH solution, Quantitative value ([2]; rikkunshito in acidic solution (pH 1.2) at 37°C, 0.5 h): 40.2 ng/mL
- Stability in gastric pH solution, Quantitative value ([2]; rikkunshito in acidic solution (pH 1.2) at 37°C, 1 h): 46.5 ng/mL
- Stability in gastric pH solution, Quantitative value ([2]; rikkunshito in acidic solution (pH 1.2) at 37°C, 2 h): 28.3 ng/mL
- Maximum plasma concentration in the preliminary pharmacokinetics study ([3]; 7.5 g dosage): 0.228 ± 0.116 ng/mL
- Stability in blood, RR ([4]; on ice 2 h, higher concentration (800 / 320 / 4000 pg/mL)): 93.4%
- Stability in blood, RR ([4]; on ice 2 h, lower concentration (20 / 8 / 100 pg/mL)): 103.1%
- Stability in blood, RR ([4]; room temperature 2 h, higher concentration (pachymic acid 800, heptamethoxyflavone 320, naringenin 4000 pg/mL)): 91.8%
- Stability in blood, RR ([4]; room temperature 2 h, lower concentration (pachymic acid 20, heptamethoxyflavone 8, naringenin 100 pg/mL)): 103.1%
- Long-term stability, RR ([5]; freezer −30°C to −10°C, 13 days, lower concentration (pachymic acid 20, heptamethoxyflavone 8 pg/mL)): 110.9%
- Long-term stability, RR ([5]; freezer, 13 days, higher concentration (pachymic acid 800, heptamethoxyflavone 320 pg/mL)): 113.9%
- Long-term stability, RR ([5]; freezer, 39 days, higher concentration (800 / 320 pg/mL)): 107.6%
- Long-term stability, RR ([5]; freezer, 39 days, lower concentration (20 / 8 pg/mL)): 104.1%
- Long-term stability, RR ([5]; freezer, 228 days, higher concentration (800 / 320 pg/mL)): 92.5%
- Long-term stability, RR ([5]; freezer, 228 days, lower concentration (20 / 8 pg/mL)): 89.6%
- Short-term stability, RR ([6]; room temperature 25 h, higher concentration (pachymic acid 800, heptamethoxyflavone 320 pg/mL)): 93.8%
- Short-term stability, RR ([6]; room temperature 25 h, lower concentration (pachymic acid 20, heptamethoxyflavone 8 pg/mL)): 85.9%
- Short-term stability, RR ([6]; room temperature (1°C to 30°C) 4 h, higher concentration (800 / 320 / 4000 pg/mL)): 95.1%
- Short-term stability, RR ([6]; room temperature (1°C to 30°C) 4 h, lower concentration (20 / 8 / 100 pg/mL)): 95.8%
- Freeze-thaw stability, RR ([7]; −30°C to −10°C, 3 cycles, higher concentration (800 / 320 / 4000 pg/mL)): 114.0%
- Freeze-thaw stability, RR ([7]; −30°C to −10°C, 3 cycles, lower concentration (20 / 8 / 100 pg/mL)): 108.8%
- Post-preparative stability, RR ([8]; autosampler set at 4°C, 24 h, higher concentration (pachymic acid 800, heptamethoxyflavone 320 pg/mL)): 88.4%
- Post-preparative stability, RR ([8]; autosampler set at 4°C, 24 h, lower concentration (pachymic acid 20, heptamethoxyflavone 8 pg/mL)): 92.4%
- Post-preparative stability, RR ([8]; autosampler set at 4°C, 48 h, higher concentration (800 / 320 / 4000 pg/mL)): 98.2%
- Post-preparative stability, RR ([8]; autosampler set at 4°C, 48 h, lower concentration (20 / 8 / 100 pg/mL)): 93.8%
- Working solution stability, RR ([9]; refrigerator 53 days, higher concentration (pachymic acid 10, heptamethoxyflavone 4, naringenin 50 ng/mL)): 101.1%
- Working solution stability, RR ([9]; refrigerator 53 days, lower concentration (pachymic acid 0.1, heptamethoxyflavone 0.04, naringenin 0.5 ng/mL)): 109.1%
- Working solution stability, RR ([9]; refrigerator 128 days, higher concentration (10 / 4 / 50 ng/mL)): 113.2%
- Working solution stability, RR ([9]; refrigerator 128 days, lower concentration (0.1 / 0.04 / 0.5 ng/mL)): 102.1%
- Stock solution stability, RR ([9]; refrigerator (1°C to 8°C) 54 days, 0.1 mg/mL (naringenin 0.5 mg/mL)): 54 days: 101.7%
- Stock solution stability, RR ([9]; refrigerator (1°C to 8°C) 129 days, 0.1 mg/mL (naringenin 0.5 mg/mL)): 129 days: 110.1%
- Dose proportionality test using power model, Inference ([10]; AUC0-last): Nonlinear
- Dose proportionality test using power model, β ([10]; AUC0-last): 1.39
- Dose proportionality test using power model, Inference ([10]; Cmax): Nonlinear
- Dose proportionality test using power model, β ([10]; Cmax): 0.856
